Experimental data: BigSolDB 2.1

O=C(Cn1cnnn1)N[C@@H]1C(=O)N2C(C(=O)O)=C(CSc3nncs3)CS[C@H]12
solubility (mole fraction)
Details | 278.15 K | 283.15 K | 288.15 K | 293.15 K | 298.15 K | 303.15 K | 308.15 K | 313.15 K
in acetone | 0.00153 | 0.00156 | 0.00161 | 0.00165 | 0.0017 | 0.00184 | 0.00193 | 0.0023
in acetonitrile | 0.000124 | 0.000137 | 0.000159 | 0.000164 | 0.000184 | 0.000219 | 0.000253 | 0.000284
in ethanol | 4.85e-05 | 5.92e-05 | 6.49e-05 | 7.26e-05 | 9.45e-05 | 0.000104 | 0.000122 | 0.000152
in ethyl acetate | 0.000188 | 0.000217 | 0.000242 | 0.0003 | 0.000342 | 0.000371 | 0.000433 | 0.00053
in isopropanol | 6.43e-05 | 6.82e-05 | 7.37e-05 | 8.59e-05 | 0.000104 | 0.000114 | 0.000134 | 0.000152
in methanol | 1.2e-05 | 1.5e-05 | 1.92e-05 | 2.43e-05 | 3.26e-05 | 4.34e-05 | 5.48e-05 | 6.84e-05
in water | 1.04e-05 | 1.27e-05 | 1.64e-05 | 1.92e-05 | 2.51e-05 | 3.24e-05 | 4.27e-05 | 5.32e-05
